Test results reported in patent publication US10076533B2, “Acyclic nucleoside phosphonate diesters” (The Regents of the University of California, priority 2013, dated 2018).
Read-outs that look alike come from different tables or passages of the source.

Tests used:
[1] = Viability of PBMC by XTT reduction; conditions: human
Hepatitis B virus = assay: HBV replication in 2.2.15 cells, HBV DNA blot hybridization; conditions: for EC50: Hepatitis B virus, 168 h; for Selectivity Index: hepatitis B virus, 2.2.15 cells
[2] = Cytotoxicity in 2.2.15 cells by neutral red uptake; conditions: human
HIV-192US727 = assay: Anti-HIV assay in human PBMC, supernatant reverse transcriptase activity; conditions: for Selectivity Index: HIV-192US727, human PBMC
HPV-11 = HPV-11 origin replication in HEK 293 cells, qPCR; type: cell-based; conditions: for EC90: read-out: EC90 (concentration required to reduce viral replication by 90%)
Protocol: (§1) An origin-containing plasmid was co-transfected with HPV-11 E1 and E2 protein expression vectors into HEK 293 cells. At 4 hr post-transfection, cells were treated with compound dilutions and the cells were incubated for 48 hr. Replication of the virus origin was detected with DpnI and exonuclease III to remove unreplicated input bacterial plasmid DNA. Remaining replicated DNA was quantified by qPCR. Toxicity was determined by trypan blue exclusion.

MT-2 cells = assay: Cytotoxicity in MT-2 cells, flow cytometry cell counts and viability; type: cell-based, human; conditions: 72 hrs, read-out: CC50, 50% Cytotoxic concentration MT2 cells T cell leukemia
Protocol: (§2) MT-2 cells were incubated with drug for 72 hrs and harvested. Flow count beads (Beckman Coulter, Miami, Fla.) were added to the cell suspension followed by propidium iodide staining and analysis using flow cytometer and the 50% cytotoxic concentration (CC50) was calculated from the cell counts and viability.

[3] = Cytotoxicity in HFF cells in parallel to HSV-2 assay; conditions: human, […]
HPV-16 = HPV-16 origin replication in HEK 293 cells, qPCR; type: cell-based; conditions: for Selectivity Index: HPV-16, HEK 293 cells
Protocol: as §1, with “HPV-16” for “HPV-11”

[4] = Toxicity in HEK 293 cells by trypan blue exclusion (HPV-16 example); type: cell-based; conditions: human
Protocol: as §1, with “HPV-16” for “HPV-11”

[5] = test system: Human peripheral blood monocyte (PBMC); assay: Viability of PBMC by XTT reduction; conditions: human PBMC, XTT reduction
[6] = Effect of oral compounds on body weight in Balb-c mice; type: in vivo; conditions: for body weight Day 0: before dosing; for lost % of body weight: day 6 versus day zero
Protocol: Compounds were administered at the indicated doses by oral gavage daily for 5 days. Weights measured before and on day 6 after 5 doses.

HIV-1LAI = assay: HIV antiviral assay in MT-2 cells, p24 reduction; conditions: Human immunodeficiency virus 1, MT2, 96 h
MAD-1 strain of JC virus = assay: Antiviral effect in JC virus (MAD-1) infected COS7 cells, qPCR
[7] = African green monkey, uninfected COS7 cells
[8] = Cytotoxicity in HFF cells in parallel to HSV-1 assay; conditions: human, […]
[9] = Cytotoxicity in HFF cells in parallel to cytomegalovirus assay; conditions: human, […]
[10] = human
[11] = test system: AD169 strain of human cytomegalovirus; assay: Antiviral effect in HFF cells infected with human cytomegalovirus (AD169)
[12] = Toxicity in HEK 293 cells by trypan blue exclusion (HPV-11 example); type: cell-based; conditions: human
Protocol: as §1

[13] = Cytotoxicity in MT-2 cells, flow cytometry cell counts and viability; type: cell-based, human; conditions: human; MT-2 cells, 72 hrs
Protocol: as §2

[14] = test system: BK virus (Gardner strain); assay: Antiviral effect in HFF cells infected with BK virus (Gardner strain), qPCR
[15] = Human immunodeficiency virus 1, PBMC, 168 h
[16] = HPV-11 origin replication in HEK 293 cells, 48 hr, qPCR

In the case of CCCCCCCCCCCCCCCCCCOCCOP(=O)(CO[C@H](COC)Cn1cnc2c(N)ncnc21)OCc1ccccc1 (stereo partly drawn) [Compound 146, benzyl octadecyloxyethyl 9-(S)-[(3-methoxy-2-phosphonomethoxy)propyl]adenine], the CC50 at 7 days ([1]; PHA-stimulated human PBMCs) is reported as 12.5 µM, the EC50 (Hepatitis B virus) is reported as 33 µM and the “Selectivity Index” value (Hepatitis B virus) is reported as >3.03. For the same compound, the CC50 at 7 days [2] was > 100 µM, the “Selectivity Index” value (HIV-192US727) was >312 and the EC50 (HIV-192US727; [15]) was < 40 nM.

In the case of CCCCCCCCCCCCCCCCCCOCCOP(=O)(COCCn1cnc2c(=O)[nH]c(N)nc21)OCc1ccccc1 (single isomer, unassigned) [Compound 1b, benzyl octadecyloxyethyl 9-(2-phosphonomethoxyethyl)guanine], the EC90 (HPV-11; [16]) is reported as 1160 nM and the CC50 (MT-2 cells) is reported as < 10 nM.

With CCCCCCCCCCCCCCCCCCOCCOP(=O)(CO[C@H](COC)Cn1cnc2c(N)ncnc21)Oc1ccccc1 (stereo partly drawn) [Compound 164, phenyl octadecyloxyethyl 9-(S)-[(3-methoxy-2-phosphonomethoxy)propyl]adenine] the CC50 at 7 days [1] was 15 µM, the EC50 (Hepatitis B virus) was 0.46 µM and the “Selectivity Index” value (Hepatitis B virus) was >216. The CC50 at 7 days [2] was > 100 µM, the “Selectivity Index” value (HIV-192US727) was >37.5 and the EC50 (HIV-192US727; [15]) was < 400 nM.

For CCCCCCCCCCCCCCCCCCOCCOP(=O)(CO[C@H](CO)Cn1ccc(=O)[nH]c1=O)OCc1ccccc1 (stereo partly drawn) [Compound 221, benzyl octadecyloxyethyl 9-(S)-[3-hydroxy-2-(phosphonomethoxy)propyl]uracil], the CC50 at 3 days [3] was > 10 µM.

For CCCCCCCCCCCCCCCCCCOCCOP(=O)(COCCn1cnc2c(=O)[nH]c(N)nc21)OCc1ccccc1 (single isomer, unassigned) [Compound 1a, benzyl octadecyloxyethyl 9-(2-phosphonomethoxyethyl)guanine], the EC90 (HPV-11; [16]) was 1060 nM and the CC50 (MT-2 cells) was < 10 nM.

In the case of CCCCCCCCCCCCCCCCCCOCCOP(=O)(CO[C@H](C)Cn1cnc2c(N)ncnc21)OCc1ccccc1 (stereo partly drawn) [Compound 74, benzyl octadecyloxyethyl 9-(R)-[(2-phosphonomethoxy)propyl]adenine], the CC50 at 7 days ([1]; PHA-stimulated human PBMCs) is reported as 24.6 µM, the EC50 (Hepatitis B virus) is reported as 6.5 µM and the “Selectivity Index” value (Hepatitis B virus) is reported as 10. For the same compound, the CC50 at 7 days [2] was 64 µM, the “Selectivity Index” value (HIV-192US727) was >4920 and the EC50 (HIV-192US727; [15]) was < 5 nM.

In the case of CCCCCCCCCCCCCCCCCCOCCOP(=O)(COCCn1cnc2c(=O)[nH]c(N)nc21)Oc1ccccc1 (centres unmarked) [Compound 19, phenyl octadecyloxyethyl 9-(2-phosphonomethoxyethyl)guanine], the EC50 (HPV-16; HEK293, 48 h) is reported as 5.27 µM, the “Selectivity Index” value (HPV-16) is reported as >1.9 and the CC50 at 7 days [1] is reported as 0.018 µM. The EC50 (Hepatitis B virus) was 43 µM, the “Selectivity Index” value (Hepatitis B virus) was >2.33 and the CC50 at 48 h [4] was > 10 µM. The CC50 at 7 days [2] was > 100 µM, the “Selectivity Index” value (HIV-192US727) was >9.0 and the EC50 (HIV-192US727; [15]) was < 3 nM.

For CCCCCCCCCCCCCCCCCCOCCOP(=O)(CO[C@H](C)Cn1cnc2c(=O)[nH]c(N)nc21)OCc1ccccc1 (stereo partly drawn) [Compound 73, benzyl octadecyloxyethyl 9-(R)-[(2-phosphonomethoxy)propyl]guanine], the CC50 at 7 days ([1]; PHA-stimulated human PBMCs) was 11.3 µM, the EC50 (Hepatitis B virus) was 34 µM and the “Selectivity Index” value (Hepatitis B virus) was 1.9. For the same compound, the CC50 at 7 days [2] was 63 µM, the “Selectivity Index” value (HIV-192US727) was >2260 and the EC50 (HIV-192US727; [15]) was < 5 nM.

For CCCCCCCCCCCCCCCCOCCCOP(=O)(COCCn1cnc2c(=O)[nH]c(N)nc21)Oc1ccccc1 (centres unmarked) [Compound 25, phenyl hexadecyloxypropyl 9-(2-phosphonomethoxyethyl)guanine], the CC50 [5] was 250 nM and the EC50 (HIV-192US727; HIV-192US727 infected human PBMC, 7 days, supernatant reverse transcriptase activity) was < 2 nM.

In the case of CCCCCCCCCCCCCCCCCCOCCOP(=O)(O)COCCn1cnc2c(=O)[nH]c(N)nc21 [ODE-PMEG, octadecyloxyethyl 9-[2-(phosphonomethoxy)ethyl]guanine], the “body weight Day 6” value ([6]; 4 mg/kg/day oral gavage daily for 5 days) is reported as 15.5 ± 0.514 (3), the “body weight Day 0” value ([6]; 4 mg/kg/day oral gavage) is reported as 19.17 ± 0.581 (3) and the “lost % of body weight” value ([6]; 4 mg/kg/day) is reported as 19.1%.

With CCCCCCCCCCCCCCCCCCOCCOP(=O)(O)CO[C@H](CO)Cn1ccc(N)nc1=O [ODE-CDV] the “body weight Day 6” value ([6]; 20 mg/kg/day oral gavage daily for 5 days) was 16.96 ± 1.38 (6), the “body weight Day 0” value ([6]; 20 mg/kg/day oral gavage) was 19.88 ± 0.55 (6) and the “lost % of body weight” value ([6]; 20 mg/kg/day) was 14.7%.

For CCCCCCCCCCCCCCCCCCOCCOP(=O)(COCCn1cnc2c(N)ncnc21)OCc1ccccc1 (centres unmarked) [Compound 2, benzyl octadecyloxyethyl 9-(2-phosphonomethoxyethyl)adenine], the EC50 (HIV-1LAI) was < 0.01 nM, the EC50 (MAD-1 strain of JC virus; JC polyomavirus, COS-7, 168 h) was > 4 µM and the “Selectivity Index” value (MAD-1 strain of JC virus; JC virus (MAD-1), COS7 cells) was <2.7. The EC50 (HPV-16; HEK293, HPV-16 origin replication in HEK 293 cells, 48 hr, qPCR, read-out: EC50) was 0.99 µM, the “Selectivity Index” value (HPV-16) was >10.1 and the CC50 at 7 days [7] was 10.6 µM. For the same compound, the EC50 (HPV-11; HEK293, HPV-11 origin replication in HEK 293 cells, 48 hr, qPCR) was 270 nM, the “Selectivity Index” value (HPV-11; HPV-11, HEK 293 cells) was >130 and the CC50 at 7 days ([1]; PHA-stimulated human PBMCs) was 11 µM. For the same compound, the CC50 at 3 days [8] was 16.6 µM, the CC50 at 14 days [9] was 18.3 µM and the EC50 (Hepatitis B virus) was 0.88 µM. The “Selectivity Index” value (Hepatitis B virus) was >113, the CC50 at 14 days [10] was 7.14 µM and the EC50 ([11]; Human betaherpesvirus 5, AD169, HFF, 336 h) was 110 nM. For the same compound, the “Selectivity Index” value ([11]; human cytomegalovirus (AD169), HFF cells) was 166, the CC50 at 48 h [12] was > 100 µM and the CC50 at 72 h [13] was < 10 nM. The CC50 (MT-2 cells; Homo sapiens, MT2) was < 10 nM, the “Selectivity Index” value ([14]; BK virus (Gardner strain), HFF cells) was >238 and the EC50 ([14]; Betapolyomavirus hominis, HFF, 336 h) was < 30 nM. The CC50 at 48 h [4] was > 10 µM, the CC50 at 7 days [2] was > 100 µM and the “Selectivity Index” value (HIV-192US727) was >1100. For the same compound, the EC50 (HIV-192US727; [15]) was < 10 nM.
